# From US5817840A, “Water soluble taxol derivatives” (The Scripps Research Institute, priority 1997, dated 1998)
# Entries after “also recorded” stand apart in the source; their conditions may differ.
# Experiments:
# [1] = tested on: CHO (Chinese hamster ovary); assay: Cytotoxicity (sulphorhodamine B), normal cell line, Table 1B; format: cell-based; conditions: Cricetulus griseus, 72 h
# Method: (§2) The cytotoxicities were determined using the sulphorhodamine B assay method (Skehan, P. et al. J. Nat. Canc. Inst. 82, 1107 (1990)).
# [2] = tested on: BALB/c 3T3 (normal mouse embryo); assay: as above; format: cell-based; conditions: BALB/c3T3, 72 h
# Method: as §2
# [3] = Taxol release from protaxols in aqueous buffer; format: physicochemical; conditions: pH 7.0-9.0, 20 and 37° C., FIG. 2A
# Method: (§1) The derivatives in which the C-7 hydroxyl group was acetylated were extremely unstable in aqueous media losing the C-7 substituent very rapidly. The stability of the synthesized compounds was examined at various pH's and temperatures. […] Table 1A includes the half-lives of six of these compounds at pH 7.5 and 9. […] This illustrates the ability to fine-tune the rate of release of taxol to a desired set of conditions using simple chemical principles.
# Protaxol 5 was dissolved in dimethylsulphoxide (DMSO) at 25° C. and immediately added to the appropriate phosphate buffer solution at the specified temperature. Aliquots were analysed using a Waters Maxima system HPLC instrument equipped with auto-injector (3.9×300 mm C18 column equipped with a precolumn; flow rate, 1.5 ml min^-1; eluant, gradient A-B, where A is 80% 100 mM ammonium acetate, buffer pH 6.0, and B is 100% methanol; ultraviolet detector). The per cent taxol released was determined from the relative areas of the peaks corresponding to protaxol 5 and taxol (the conversion was clean, and it was assumed that the two compounds have equal molar extinction coefficients).
# [4] = tested on: BT-549 (breast carcinoma); assay: Cytotoxicity (sulphorhodamine B), cancer cell line, Table 1B; format: cell-based; conditions: Homo sapiens, BT-549, 72 h
# Method: as §2
# [5] = Water solubility in D2O by 1H NMR; conditions: compared to taxol
# Method: The solubilities of the synthesized protaxols in D2 O were determined by 1H NMR spectroscopy.
# The resulting mixture was centrifuged for 20 minutes and the supernatant saturated solution was analysed by ^1 H NMR spectroscopy using a Bruker AMX-400 instrument and methanol or pyridine as internal standard. The concentration of the compound was determined by comparing several signals with the CH3 signal of methanol or the NCH signal of pyridine.
# [6] = tested on: tubulin / microtubules; assay: Tubulin polymerization-depolymerization (CaCl2-induced depolymerization of microtubules); format: biochemical; conditions: 10^-6 M, 1.0 mg/mL tubulin
# Method: Tubulin polymerization to microtubules is promoted by GTP, whereas CaCl2 causes depolymerization of microtubules back to tubulin (FIG. 3A). […] The designed protaxol 5 was tested for its ability to stabilize microtubules formed from tubulin via the action of GTP. […] These findings are in agreement with the previously reported loss of activity resulting from blocking the C-2' hydroxyl group.
# Tubulin polynerization-depolymerization experiments with taxol and designed protaxol 5 are illustrated in FIG. 3. CaCl2 -promoted depolymerization of microtubules was suppressed by taxol and protaxol 5 (after taxol release).
# These measurements may be conducted at 37° C. following a recently developed procedure described by R. Merlock and W. Wrasidlo (Analytical Biochemistry, 1993). In each case 1.0 mM GTP may be employed to promote initial polymerization of tubulin.
# D: Tubulin (1.0 mg/mL) with protaxol 5 (10^-6 M) after release of taxol (as determined by HPLC, essentially quantitative conversion).
# [7] = tested on: L1210 (mouse leukaemia); assay: Cytotoxicity (sulphorhodamine B), cancer cell line, Table 1B; format: cell-based; conditions: L1210, 72 h
# Method: as §2
# [8] = tested on: OVCAR-3 (ovarian carcinoma); assay: as above; format: cell-based; conditions: Homo sapiens, OVCAR-3, 72 h
# Method: as §2
# [9] = tested on: CHO (normal human mammary); assay: Cytotoxicity (sulphorhodamine B), normal cell line, Table 1B; format: cell-based; conditions: Homo sapiens, 72 h
# [10] = tested on: PC-3 (prostate carcinoma); assay: Cytotoxicity (sulphorhodamine B), cancer cell line, Table 1B; format: cell-based; conditions: Homo sapiens, 72 h
# Method: as §2
# [11] = tested on: 786-0 (renal cell carcinoma); assay: as above; format: cell-based; conditions: Homo sapiens, 786-0, 72 h
# Method: as §2
# [12] = Taxol release in human blood plasma at 37° C.; format: in vitro ADME
# Method: Protaxol 5 and N-cyclohexylbenzamide (as internal standard) were dissolved in acetonitrile and immediatley added to human plasma or phosphate buffer at pH 7.4. Samples-of protaxol 5 were incubated in each medium for specified times and then extracted with ethyl acetate as described by S. M. Longnecker, et al., Cancer Treat. Rep. 71, 53 (1987). Solvent was removed and the residue dissolved in acetonitrile and analysed by HPLC as already described. The peak areas for compound 5 and taxol were normalized to that of the internal standard using a calibration curve.
# [13] = Stability in aqueous media, aprotic organic solvents and solid state; format: physicochemical; conditions: aqueous media / pH 7.0 buffer / 20° C.
# Description: as §1
# [14] = tested on: HL-60 (promyel carcinoma); assay: Cytotoxicity (sulphorhodamine B), cancer cell line, Table 1B; format: cell-based; conditions: Homo sapiens, HL-60, 72 h
# Method: as §2
# [15] = tested on: HT-29 (colon carcinoma); assay: as above; format: cell-based; conditions: Homo sapiens, HT-29, 72 h
# Method: as §2
# [16] = tested on: UCLA-P-3 (lung carcinoma); assay: as above; format: cell-based; conditions: Homo sapiens, UCLA P-3, 72 h
# Method: as §2
# [17] = tested on: H322 (lung carcinoma); assay: as above; format: cell-based; conditions: NCI-H322, 72 h
# Method: as §2
# [18] = tested on: MOLT-4 (T-cell leukaemia); assay: as above; format: cell-based; conditions: Homo sapiens, MOLT-4, 72 h
# Method: as §2
# [19] = tested on: SK (melanoma); assay: as above; format: cell-based; conditions: 72 h
# Method: as §2
# [20] = tested on: Capan-1 (pancreatic); assay: as above; format: cell-based; conditions: Homo sapiens, CAPAN-1, 72 h
# Method: as §2
# [21] = tested on: RPMI-7666 (normal human PBLs); assay: Cytotoxicity (sulphorhodamine B), normal cell line, Table 1B; format: cell-based; conditions: 72 h
# Method: as §2
# [22] = tested on: NHDF (normal human skin); assay: as above; format: cell-based; conditions: 72 h
# Method: as §2
structure (smiles),measurement,setting,value
CC(=O)O[C@H]1C(=O)[C@@]2(C)[C@H]([C@H](OC(=O)c3ccccc3)[C@]3(O)C[C@H](OC(=O)[C@H](OC(=O)CS(=O)(=O)CC(=O)O)[C@@H](NC(=O)c4ccccc4)c4ccccc4)C(C)=C1C3(C)C)[C@]1(OC(C)=O)CO[C@@H]1C[C@@H]2O [Compound 5],IC50,[1],100 µM
same,IC50,[2],10 µM
same,effect of temperature and pH on taxol release,[3],accelerating effect of higher temperatures and pH on taxol release
same,IC50,[4],< 0.001 µM
same,Water solubility (in words),[5],good solubility
same,prevention of CaCl2-induced depolymerization of microtubules,"[6]; CaCl2 0.25 mM after 16 minutes, 37° C., initial, no prior release",failed to prevent CaCl2-induced disassembly of microtubules; also recorded: caused depolymerization of microtubules
same,prevention of CaCl2-induced depolymerization of microtubules after taxol release,[6]; after prolonged exposure / release of taxol,reached potencies comparable to that of taxol; also recorded: suppressed
same,IC50,[7],10 µM
same,IC50,[8],< 0.001 µM
same,IC50,[9],100 µM
same,IC50,[10],1 µM
same,IC50,[11],1 µM
same,taxol release in human blood plasma (in words),[12]; compared to pH 7.4 buffer,accelerated release of taxol; also recorded: rapidly releasing taxol
same,half-life,[12]; human blood plasma,~1.67 h
same,stability in aqueous media,[13],good solubility and stability properties in aqueous media; also recorded: quite stable
same,IC50,[14],< 0.001 µM
same,IC50,[15],< 0.001 µM
same,IC50,[16],< 0.001 µM
same,IC50,[17],0.001 µM
same,IC50,[18],0.001 µM
same,IC50,[19],10 µM
same,IC50,[20],< 0.001 µM
same,IC50,[21],100 µM
same,IC50,[22],1 µM
